Results as given in patent publication US11638712B2, “Bis(acetamidophenyl) guanidinophenylethylphosphonates for use in the prevention and/or treatment of PAR-related diseases” (Universiteit Antwerpen, priority 2016, dated 2023).
Like-named read-outs stand apart in the source and are kept apart here.

Experiments:
[1] = molecular target: tPA (Homo sapiens, UniProt P00750); assay: in vitro serine protease inhibition profile: tPA; assay type: biochemical
[2] = molecular target: T1, plasmin (Homo sapiens, UniProt P00747); assay: in vitro serine protease inhibition profile: plasmin; assay type: biochemical
T1 construct: panel of serine proteases: uPA, tPA, thrombin, plasmin, FXIIa

[3] = molecular target: tryptase (Homo sapiens, UniProt Q15661); assay: in vitro serine protease inhibition profile: tryptase; assay type: biochemical
[4] = molecular target: T2, cathepsinG (Homo sapiens, UniProt P08311); assay: in vitro serine protease inhibition profile: cathepsinG; assay type: biochemical
T2 sequence (P08311 21-244): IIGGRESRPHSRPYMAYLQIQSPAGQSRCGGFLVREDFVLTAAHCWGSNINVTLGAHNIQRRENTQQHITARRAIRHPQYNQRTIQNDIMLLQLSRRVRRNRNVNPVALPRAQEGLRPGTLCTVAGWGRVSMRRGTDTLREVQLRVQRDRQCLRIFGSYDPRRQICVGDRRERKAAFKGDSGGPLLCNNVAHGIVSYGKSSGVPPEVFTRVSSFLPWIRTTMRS

[5] = molecular target: T3, matriptase (Homo sapiens, UniProt Q9Y5Y6); assay: in vitro serine protease inhibition profile: matriptase; assay type: biochemical
T3 sequence (Q9Y5Y6 1-855): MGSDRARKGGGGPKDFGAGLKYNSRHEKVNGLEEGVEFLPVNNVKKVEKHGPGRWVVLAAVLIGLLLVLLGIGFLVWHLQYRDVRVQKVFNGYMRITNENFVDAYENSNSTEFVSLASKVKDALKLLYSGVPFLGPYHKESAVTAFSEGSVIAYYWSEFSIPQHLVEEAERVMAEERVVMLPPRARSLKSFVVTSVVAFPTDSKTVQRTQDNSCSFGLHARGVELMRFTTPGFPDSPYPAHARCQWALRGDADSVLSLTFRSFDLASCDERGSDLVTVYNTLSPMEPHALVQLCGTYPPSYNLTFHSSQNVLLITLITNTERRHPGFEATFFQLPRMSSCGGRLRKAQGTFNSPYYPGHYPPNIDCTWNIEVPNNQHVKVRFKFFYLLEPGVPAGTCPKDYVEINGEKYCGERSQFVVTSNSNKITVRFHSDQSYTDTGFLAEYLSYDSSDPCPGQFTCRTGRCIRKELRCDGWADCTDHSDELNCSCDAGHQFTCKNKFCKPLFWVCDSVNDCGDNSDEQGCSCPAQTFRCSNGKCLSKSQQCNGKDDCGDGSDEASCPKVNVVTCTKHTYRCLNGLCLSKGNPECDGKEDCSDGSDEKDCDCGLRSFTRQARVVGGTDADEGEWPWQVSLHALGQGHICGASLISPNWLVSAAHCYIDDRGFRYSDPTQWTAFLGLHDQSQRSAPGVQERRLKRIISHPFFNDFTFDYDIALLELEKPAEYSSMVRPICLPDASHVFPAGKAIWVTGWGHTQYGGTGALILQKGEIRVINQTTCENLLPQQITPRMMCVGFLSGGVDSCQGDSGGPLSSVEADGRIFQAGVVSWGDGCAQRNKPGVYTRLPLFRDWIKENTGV

[6] = molecular target: KLK1 (Homo sapiens, UniProt P06870); assay: in vitro serine protease inhibition profile: KLK1; assay type: biochemical
[7] = molecular target: KLK2 (Homo sapiens, UniProt P20151); assay: in vitro serine protease inhibition profile: KLK2; assay type: biochemical
[8] = molecular target: KLK4 (Homo sapiens, UniProt Q9Y5K2); assay: in vitro serine protease inhibition profile: KLK4; assay type: biochemical
[9] = molecular target: T4, KLK8 (Homo sapiens, UniProt O60259); assay: in vitro serine protease inhibition profile: KLK8; assay type: biochemical
T4 sequence (O60259 33-260): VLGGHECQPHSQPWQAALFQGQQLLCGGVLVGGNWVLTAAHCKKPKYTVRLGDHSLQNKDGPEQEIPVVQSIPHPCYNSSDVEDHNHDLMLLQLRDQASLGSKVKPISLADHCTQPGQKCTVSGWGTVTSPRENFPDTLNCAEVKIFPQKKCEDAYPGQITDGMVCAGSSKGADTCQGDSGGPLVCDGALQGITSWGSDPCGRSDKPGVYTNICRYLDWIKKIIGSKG

[10] = molecular target: T5, FXIIa (Homo sapiens, UniProt P00748); assay: in vitro serine protease inhibition profile: FXIIa; assay type: biochemical
T5 construct: panel of serine proteases: uPA, tPA, thrombin, plasmin, FXIIa

[11] = molecular target: T6, HNE (Homo sapiens, UniProt P08246); assay: in vitro serine protease inhibition profile: HNE; assay type: biochemical
T6 sequence (P08246 30-267): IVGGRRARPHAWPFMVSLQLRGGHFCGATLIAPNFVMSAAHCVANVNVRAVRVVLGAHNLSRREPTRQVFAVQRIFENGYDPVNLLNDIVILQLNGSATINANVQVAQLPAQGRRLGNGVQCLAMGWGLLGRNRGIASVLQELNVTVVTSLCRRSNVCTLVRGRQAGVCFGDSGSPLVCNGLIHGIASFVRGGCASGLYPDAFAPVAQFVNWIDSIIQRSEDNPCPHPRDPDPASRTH

[12] = molecular target: uPA (Homo sapiens, UniProt P00749); assay: in vitro serine protease inhibition profile: uPA; assay type: biochemical; settings: read-out: IC50 uPA
[13] = molecular target: T7, thrombin (Homo sapiens, UniProt P00734); assay: in vitro serine protease inhibition profile: thrombin; assay type: biochemical; settings: read-out: IC50 thrombin
T7 construct: panel of serine proteases: uPA, tPA, thrombin, plasmin, FXIIa

[14] = tested on: post-colitis rats; assay: post-colitis rat model for visceral pain, visceromotor response (VMR) to colorectal distension; settings: post-colitis rats, 10 mg/kg
Procedure: Male Sprague-Dawley rats (200-225 g; Charles River, Italy) were used in all experiments. Rats were housed at a constant room temperature (22±2° C.) and humidity (60%). The animals had unlimited access to water and food and were kept on a 12 h:12 h day-night cycle. They were allowed to acclimatize for at least 1 week before the start of the experiments.
In this set-up, a mild colitis was induced in the post-colitis group on day 0, using a TNBS-enema. The control group received an intrarectal administration with 0.9% NaCl. The presence of colitis was verified by a colonoscopy on day 3. From day 10 onwards, a colonoscopy was performed every 4 days to follow-up the healing of the colonic mucosa. When the colonic mucosa was completely healed, further experiments were performed 3 days later. […] After the VMR measurement, the animals were sacrificed.
TNBS-colitis was induced at day 0 using a TNBS-enema (4 mg TNBS, 50% ethanol). […] Control animals received 0.25 ml 0.9% NaCl intrarectally. The animals were kept in a tail-up position during 1 min and were then allowed to recover in a Trendelenburg position.
Electromyographic (EMG) electrodes were implanted into the external abdominal muscle and 3 days later, the VMR experiment was performed in conscious rats. A lubricated balloon (length 5 cm) was introduced into the colorectum of the animal and connected to a barostat (Distender Series II Barostat, G&J Electronics, Canada). The EMG electrodes were attached to a data-acquisition system and a phasic distension protocol (10-20-30-40-60 mmHg, 20 s, 4 min interval) was sent through the barostat. […] The VMR was quantified using the area under the curve (AUC) of the EMG signal during the distension (20 s) corrected for the EMG signal before the distension (20 s).
22.0. The results of the VMR experiments analyzed using a Generalized Estimating Equations (GEE) test with Least Significant Difference (LSD) post-hoc test. A p-value<0.05 was considered as being statistically significant. The graphs were made with GraphPad Prism 6.0.
Visceral sensitivity was assessed using the visceromotor responses (VMRs) to a colorectal distension, shown in the graphs below as area under the curve (AUC; y-axis; μV.20 s-1) for each distension pressure (x-axis; mmHg). Serine proteases seem to play an important role in the pathogenesis of visceral pain.

Sequence of KLK1 (P06870 25-262, species assumed): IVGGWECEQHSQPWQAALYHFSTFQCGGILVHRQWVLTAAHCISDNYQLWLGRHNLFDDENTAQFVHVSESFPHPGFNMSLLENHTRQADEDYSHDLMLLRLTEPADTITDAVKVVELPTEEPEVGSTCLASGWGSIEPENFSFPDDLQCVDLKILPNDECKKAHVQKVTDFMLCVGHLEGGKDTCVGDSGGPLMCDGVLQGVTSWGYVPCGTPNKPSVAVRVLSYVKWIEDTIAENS
Sequence of tPA (P00750 36-562, species assumed): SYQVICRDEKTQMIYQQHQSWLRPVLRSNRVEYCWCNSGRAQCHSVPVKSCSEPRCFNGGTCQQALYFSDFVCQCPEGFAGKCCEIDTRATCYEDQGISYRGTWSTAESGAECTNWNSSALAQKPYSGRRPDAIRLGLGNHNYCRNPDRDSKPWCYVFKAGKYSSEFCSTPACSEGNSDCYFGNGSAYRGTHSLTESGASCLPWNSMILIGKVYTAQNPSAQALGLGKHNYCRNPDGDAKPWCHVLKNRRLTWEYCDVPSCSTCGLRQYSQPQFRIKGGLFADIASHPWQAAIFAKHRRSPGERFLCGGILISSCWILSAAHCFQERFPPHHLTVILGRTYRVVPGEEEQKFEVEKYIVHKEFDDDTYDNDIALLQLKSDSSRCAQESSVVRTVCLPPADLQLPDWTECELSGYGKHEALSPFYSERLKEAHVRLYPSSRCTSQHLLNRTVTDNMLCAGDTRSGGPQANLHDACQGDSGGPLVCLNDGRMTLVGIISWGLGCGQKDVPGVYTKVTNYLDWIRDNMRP
Sequence of KLK2 (P20151 25-261, species assumed): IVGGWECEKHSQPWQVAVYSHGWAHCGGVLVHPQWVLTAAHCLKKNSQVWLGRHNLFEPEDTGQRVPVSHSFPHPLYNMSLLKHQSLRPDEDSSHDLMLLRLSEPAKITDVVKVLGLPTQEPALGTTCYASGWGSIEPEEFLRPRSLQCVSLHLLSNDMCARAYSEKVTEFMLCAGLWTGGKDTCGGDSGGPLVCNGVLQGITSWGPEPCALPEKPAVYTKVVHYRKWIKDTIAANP
Sequence of tryptase (Q15661 31-275): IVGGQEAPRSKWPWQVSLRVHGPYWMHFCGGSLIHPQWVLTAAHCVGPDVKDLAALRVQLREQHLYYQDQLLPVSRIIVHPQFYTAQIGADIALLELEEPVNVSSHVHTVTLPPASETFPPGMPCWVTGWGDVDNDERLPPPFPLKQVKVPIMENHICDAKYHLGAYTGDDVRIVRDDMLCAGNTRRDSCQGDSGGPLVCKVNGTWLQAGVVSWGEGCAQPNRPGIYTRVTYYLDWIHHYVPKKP
Sequence of KLK4 (Q9Y5K2 31-254, species assumed): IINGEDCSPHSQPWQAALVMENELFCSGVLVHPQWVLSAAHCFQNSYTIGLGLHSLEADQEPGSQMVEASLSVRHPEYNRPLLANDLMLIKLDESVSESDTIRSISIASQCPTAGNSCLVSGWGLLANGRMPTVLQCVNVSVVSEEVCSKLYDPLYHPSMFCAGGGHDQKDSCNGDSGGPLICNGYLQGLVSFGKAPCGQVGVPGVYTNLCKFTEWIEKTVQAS
T1 sequence (P00747 581-810 limits assumed, species assumed): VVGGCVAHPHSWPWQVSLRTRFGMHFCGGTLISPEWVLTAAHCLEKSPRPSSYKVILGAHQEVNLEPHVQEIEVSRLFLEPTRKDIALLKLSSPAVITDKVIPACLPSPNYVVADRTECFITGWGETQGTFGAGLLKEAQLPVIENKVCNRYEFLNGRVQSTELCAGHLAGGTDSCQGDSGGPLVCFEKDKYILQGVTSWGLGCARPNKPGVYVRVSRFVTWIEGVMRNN
T1 sequence (P00747 97-580 partner limits assumed, species assumed): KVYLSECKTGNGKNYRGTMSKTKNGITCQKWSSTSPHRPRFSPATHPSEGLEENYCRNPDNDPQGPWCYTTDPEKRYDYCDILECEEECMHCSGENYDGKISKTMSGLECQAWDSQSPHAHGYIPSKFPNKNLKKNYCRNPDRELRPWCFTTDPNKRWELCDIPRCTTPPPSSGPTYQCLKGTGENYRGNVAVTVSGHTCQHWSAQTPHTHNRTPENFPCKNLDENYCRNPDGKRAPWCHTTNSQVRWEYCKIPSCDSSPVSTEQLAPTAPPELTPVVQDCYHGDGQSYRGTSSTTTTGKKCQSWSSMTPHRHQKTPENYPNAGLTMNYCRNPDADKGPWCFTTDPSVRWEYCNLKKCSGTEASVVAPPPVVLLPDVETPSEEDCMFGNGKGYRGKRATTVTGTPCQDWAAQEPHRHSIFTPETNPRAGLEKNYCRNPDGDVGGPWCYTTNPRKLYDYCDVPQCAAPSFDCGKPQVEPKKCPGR
T5 sequence (P00748 373-615 limits assumed, other chains not shown): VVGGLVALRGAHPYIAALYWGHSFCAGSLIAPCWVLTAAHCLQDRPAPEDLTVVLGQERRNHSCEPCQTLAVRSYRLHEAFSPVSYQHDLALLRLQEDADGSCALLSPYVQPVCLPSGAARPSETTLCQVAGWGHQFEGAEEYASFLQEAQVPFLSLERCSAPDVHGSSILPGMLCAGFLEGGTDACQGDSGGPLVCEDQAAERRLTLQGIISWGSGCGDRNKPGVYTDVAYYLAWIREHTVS

SMILES	IC50 [1]	IC50 [2]	IC50 [3]	IC50 [5]	IC50 [6]	IC50 [7]	IC50 [9]	IC50 [11]	other results
COC(=O)NC(Cc1ccc(NC(=N)N)cc1)P(=O)(Oc1ccc(NC(C)=O)cc1)Oc1ccc(NC(C)=O)cc1 (centres unmarked) [Compound 2]	> 2500 nM	> 2500 nM	3 nM	8 nM	> 2500 nM	315 nM	13 nM	> 2500 nM	IC50 [4]: 61 nM; IC50 [8]: 26 nM; IC50 [10]: 3140 nM
N=C(N)Nc1ccc(CC(NC(=O)OCc2ccccc2)P(=O)(Oc2ccccc2)Oc2ccccc2)cc1 (centres unmarked) [Compound 3]	> 2500 nM	> 2500 nM	83 nM	150 nM	> 2500 nM	90 nM	42 nM	> 2500 nM	IC50 ([8]; read-out: IC50 KLK4): 12 nM
N=C(N)c1ccc2cc(OC(=O)c3ccc(N=C(N)N)cc3)ccc2c1 [Nafamostat]	–	–	–	–	–	–	–	–	IC50 [12]: < 1 nM; IC50 ([1]; read-out: IC50 tPA): > 2500 nM; IC50 [13]: ~500000 nM; IC50 ([3]; read-out: IC50 tryptase): < 1 nM; IC50 ([6]; read-out: IC50 KLK1): ~1000 nM; IC50 ([7]; read-out: IC50 KLK2): ~100 nM; IC50 ([9]; read-out: IC50 KLK8): ~15 nM; IC50 ([11]; read-out: IC50 HNE): > 2500 nM; effect on VMRs (visceral pain) [14]: no significant effect on visceral pain could be detected
